# From US10336729B2, “4-cyano-benzyl carbamimidoylcarbamate derivatives and their use as AOC3 inhibitors” (Boehringer Ingelheim International GmbH, priority 2016, dated 2019)
# Target: AOC3 (Homo sapiens (Human), UniProt Q16853)
# Assay: MAO-Glo AOC3 assay
# Format: biochemical
# Settings: recombinant CHO cells overexpressing AOC3 enzyme
# From the text: The MAO-Glo™ Assay (commercial available from PROMEGA, #V1402) provides a sensitive method for the measurement of monoamine oxidase (MAO) activity (Valley, M. P. et al., 2006, Anal. Biochem. 359: 238-246) from a variety of tissues, biofluids or recombinant expressed or purified enzymes. As substrate a derivate of the beetle luciferin ((4S)-4,5-dihydro-2-(6-hydroxybenzothiazolyl)-4-thiazole-carboxylic acid) is used, which is oxidized at a primary amine moiety. After a spontaneous elimination and a catalyzed esterase reaction, the turnover of the luciferine by the luciferase is recorded as a signal of AOC3 activity.
# An aliquot of 3 μL of the compound dilution is added to a 384 well plate (Optiplate, PS, flat bottom, white, PERKIN ELMER, #6007290) with a final DMSO concentration of 6.6%. Recombinant CHO cells, overexpressing the human (1500 cells/well), mouse (1000 cells/well) or rat (500 cells/well) AOC3 enzyme are diluted in reaction buffer and added in a volume of 15 μL to the wells. After incubation for 20 minutes at 37° C., 2 μL of MAO substrate (dissolved in DMSO at 16 mM, adjusted to assay concentration in reaction buffer to a final assay concentration of 20 μM) is added and further incubated for 60 minutes at 37° C. The turnover of the substrate is determined by the addition of 20 μL of the detection-mix which was generated by the addition of reconstitution buffer with esterase (PROMEGA, #V1402) to the luciferine detection reagent (PROMEGA, #V1402). After an incubation period of 20 minutes, the luminescent signal is measured with Envision 2104 Multilabel Reader (PERKIN ELMER).
# AOC3, sequence (Q16853 whole entry): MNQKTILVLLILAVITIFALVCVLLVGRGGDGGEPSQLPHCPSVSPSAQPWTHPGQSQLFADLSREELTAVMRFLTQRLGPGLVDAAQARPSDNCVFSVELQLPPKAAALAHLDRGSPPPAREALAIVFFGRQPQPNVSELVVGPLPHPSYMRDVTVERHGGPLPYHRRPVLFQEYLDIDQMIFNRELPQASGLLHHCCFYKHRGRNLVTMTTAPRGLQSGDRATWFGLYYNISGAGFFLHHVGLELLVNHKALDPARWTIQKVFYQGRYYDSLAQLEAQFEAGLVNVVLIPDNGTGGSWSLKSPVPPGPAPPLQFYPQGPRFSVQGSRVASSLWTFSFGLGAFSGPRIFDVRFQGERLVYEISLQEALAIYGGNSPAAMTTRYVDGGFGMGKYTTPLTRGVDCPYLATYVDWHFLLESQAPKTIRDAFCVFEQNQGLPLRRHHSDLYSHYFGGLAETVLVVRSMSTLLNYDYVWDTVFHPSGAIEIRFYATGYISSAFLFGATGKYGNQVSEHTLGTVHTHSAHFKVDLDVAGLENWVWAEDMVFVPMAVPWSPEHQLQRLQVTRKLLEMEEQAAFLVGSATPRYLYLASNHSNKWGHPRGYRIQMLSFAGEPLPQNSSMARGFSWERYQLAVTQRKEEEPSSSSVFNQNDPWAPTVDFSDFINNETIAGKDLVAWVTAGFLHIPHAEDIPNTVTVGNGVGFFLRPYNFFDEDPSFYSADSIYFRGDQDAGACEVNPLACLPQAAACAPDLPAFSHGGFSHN
row,IC50 [nM],Structure (SMILES)
1,24,N#Cc1ccc(COC(=O)NC(=N)N)c(F)c1N1CC=C(c2ccc(F)cc2)CC1 [Example 1.033]
2,7,N#Cc1ccc(COC(=O)NC(=N)N)c(F)c1N1CCN(c2ccncn2)CC1 [Example 1.001]
3,280,N#Cc1ccc(COC(=O)NC(=N)N)c(F)c1N1CCC(O)(c2ccccc2)CC1 [Example 1.085]
4,166,N#Cc1ccc(COC(=O)NC(=N)N)c(F)c1N1CCC(C#N)(c2ccccc2)CC1 [Example 2.001]
5,5,N#Cc1ccc(COC(=O)NC(=N)N)c(F)c1N1CCN(c2ccc(F)cc2)C(=O)C1 [Example 1.050]
6,55,Cc1ccc(N2CCN(c3c(C#N)ccc(COC(=O)NC(=N)N)c3F)CC2)nn1 [Example 1.068]
7,42,Cc1ccc(N2CCN(c3c(C#N)ccc(COC(=O)NC(=N)N)c3F)CC2)nc1 [Example 1.039]
8,27,N#Cc1ccc(COC(=O)NC(=N)N)c(F)c1N1CCN(c2nccs2)CC1 [Example 1.036]
9,70,N#Cc1ccc(COC(=O)NC(=N)N)c(F)c1N1CCC(c2ccc(F)cc2)CC1 [Example 1.031]
10,4,CC(=O)N1CCC(C2CCN(c3c(C#N)ccc(COC(=O)NC(=N)N)c3F)CC2)CC1 [Example 1.014]
11,579,N#Cc1ccc(COC(=O)NC(=N)N)c(F)c1N1CCN(C2CCOCC2)CC1 [Example 1.038]
12,211,Cc1ccc(C2CCN(c3c(C#N)ccc(COC(=O)NC(=N)N)c3F)CC2)cc1 [Example 1.072]
13,93,N#Cc1ccc(COC(=O)NC(=N)N)c(F)c1N1CCC2(CC1)CC(=O)Nc1ncccc12 [Example 2.002]
14,5,N#Cc1ccc(COC(=O)NC(=N)N)c(F)c1N1CCN(c2ccnnc2)CC1 [Example 1.006]
15,103,N#Cc1ccc(COC(=O)NC(=N)N)c(F)c1N1CCN(c2ccc(C(F)(F)F)cc2)CC1 [Example 1.073]
16,5,CS(=O)(=O)N1CCC(C2CCN(c3c(C#N)ccc(COC(=O)NC(=N)N)c3F)CC2)CC1 [Example 1.017]
17,27,N#Cc1ccc(COC(=O)NC(=N)N)c(F)c1N1CCN(c2ncc(F)cn2)CC1 [Example 1.069]
18,10,N#Cc1ccc(COC(=O)NC(=N)N)c(F)c1N1CCN(c2cnccn2)CC1 [Example 1.007]
19,70,CN(C)C(=O)c1ccc(N2CCN(c3c(C#N)ccc(COC(=O)NC(=N)N)c3F)CC2)cc1 [Example 1.026]
20,15,COc1cnc(N2CCN(c3c(C#N)ccc(COC(=O)NC(=N)N)c3F)CC2)nc1 [Example 1.056]
21,70,COc1ncc(N2CCN(c3cc(COC(=O)NC(=N)N)cc(F)c3C#N)CC2)cn1 [Example 1.020]

row,Structure (SMILES),IC50 [nM]
1,N#Cc1ccc(COC(=O)NC(=N)N)c(F)c1N1C2CCC1CC(c1ccccc1)C2 (stereo not shown) [Example 1.077],293
